This note sets out measurements from US11173151B2, “Substituted triazole derivatives and uses thereof” (BAYER AKTIENGESELLSCHAFT, priority 2017, dated 2021).

One experiment has as its target T1, human V2 receptor (Homo sapiens, UniProt P30518).
T1 construct: expressed in transfected cells; host or cells: CHO K1 (ATCC) expressing firefly luciferase under a CRE-responsive promoter
Kind of experiment: Cellular in vitro assay for determining vasopressin receptor activity, V2 receptor cell line (CHO, CRE-luciferase). It is filed as cell-based. Conditions: CHO cell line transfected with human V2 receptor; [Arg8]-vasopressin at EC50 concentration, 3 hours; read-out: IC50 hV2.

In another experiment the target is T2, human V1a receptor (Homo sapiens, UniProt P37288).
T2 construct: expressed in transfected cells; host or cells: CHO K1 (ATCC), also stably transfected with a modified aequorin
T2 sequence (P37288 whole entry): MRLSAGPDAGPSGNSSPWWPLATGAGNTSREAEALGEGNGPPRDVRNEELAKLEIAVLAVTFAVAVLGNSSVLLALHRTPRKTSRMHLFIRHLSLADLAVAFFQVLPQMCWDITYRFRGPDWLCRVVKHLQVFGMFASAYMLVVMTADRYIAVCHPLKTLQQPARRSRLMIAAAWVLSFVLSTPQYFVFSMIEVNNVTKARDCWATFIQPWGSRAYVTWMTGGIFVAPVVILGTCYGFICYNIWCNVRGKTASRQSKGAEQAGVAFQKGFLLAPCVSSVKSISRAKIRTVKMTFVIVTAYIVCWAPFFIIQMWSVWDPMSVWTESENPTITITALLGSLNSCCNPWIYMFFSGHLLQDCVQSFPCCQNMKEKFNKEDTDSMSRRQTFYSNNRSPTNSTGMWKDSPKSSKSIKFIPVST
Kind of experiment: Cellular in vitro assay for determining vasopressin receptor activity, V1a receptor cell line (CHO, aequorin luminescence). It is filed as cell-based. Conditions: for IC50: CHO cell line transfected with human V1a receptor, [Arg]-vasopressin at EC50 concentration, read-out: IC50 hV1a; for ratio IC50 hV2/hV1a: selectivity ratio IC50 hV2 / IC50 hV1a. In a few lines: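 Luminescence from reconstituted aequorin, reporting intracellular calcium release, was measured immediately after adding [Arg]-vasopressin at EC50 concentration to CHO K1 cells pretreated 10 minutes with graded compound concentrations. Inhibition gave IC50 values.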

T1 sequence (P30518 whole entry): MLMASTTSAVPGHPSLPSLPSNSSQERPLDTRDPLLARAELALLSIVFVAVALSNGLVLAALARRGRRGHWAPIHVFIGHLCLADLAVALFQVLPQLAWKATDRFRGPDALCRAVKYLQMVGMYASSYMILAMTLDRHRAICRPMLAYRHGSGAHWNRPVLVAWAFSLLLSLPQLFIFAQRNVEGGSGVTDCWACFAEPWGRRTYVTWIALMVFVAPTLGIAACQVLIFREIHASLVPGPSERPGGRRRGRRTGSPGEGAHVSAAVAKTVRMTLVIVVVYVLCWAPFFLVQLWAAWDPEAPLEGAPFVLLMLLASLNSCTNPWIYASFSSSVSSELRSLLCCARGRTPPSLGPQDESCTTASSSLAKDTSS

The term IC50 denotes the concentration that inhibits the measured activity by half. Regarding `CC1CCN(C(=O)c2ccccc2-n2cnc(Cn3nc(-c4ccc(Cl)cc4)n(C[C@H](O)C(F)(F)F)c3=O)n2)CC1` [Example 347, 5-(4-Chlorophenyl)-2-[(1-{2-[(4-methylpiperidin-1-yl)carbonyl]phenyl}-1H-1,2,4-triazol-3-yl)methyl]-4-[(2S)-3,3,3-trifluoro-2-hydroxypropyl]-2,4-dihydro-3H-1,2,4-triazol-3-one], the 50% inhibitory concentration (IC50) on human V2 receptor worked out at 1060 nM; on human V1a receptor, 7.55 nM. The “ratio IC50 hV2/hV1a” value on human V1a receptor stood at 141.1.

As to `O=C(c1ccccc1-n1cnc(Cn2nc(-c3ccc(Cl)cc3)n(C[C@H](O)C(F)(F)F)c2=O)n1)N1CCCC1` [Example 348, 5-(4-Chlorophenyl)-2-({1-[2-(pyrrolidin-1-ylcarbonyl)phenyl]-1H-1,2,4-triazol-3-yl}methyl)-4-[(2S)-3,3,3-trifluoro-2-hydroxypropyl]-2,4-dihydro-3H-1,2,4-triazol-3-one], the IC50 came out at 970 nM at human V2 receptor and 3.85 nM on human V1a receptor. Further, the “ratio IC50 hV2/hV1a” value at human V1a receptor worked out at 251.9.

Take `CCN(C(=O)c1ccccc1-n1cnc(Cn2nc(-c3ccc(Cl)cc3)n(C[C@H](O)C(F)(F)F)c2=O)n1)C(C)C` [Example 349, 2-[3-({3-(4-Chlorophenyl)-5-oxo-4-[(2S)-3,3,3-trifluoro-2-hydroxypropyl]-4,5-dihydro-1H-1,2,4-triazol-1-yl}methyl)-1H-1,2,4-triazol-1-yl]-N-ethyl-N-(propan-2-yl)benzamide]: on human V2 receptor, the half-inhibitory concentration (IC50) stood at 740 nM. At human V1a receptor, the half-maximal inhibitory concentration (IC50) was 4.7 nM and the “ratio IC50 hV2/hV1a” value was 157.4.

Take `O=C(c1ccccc1-n1cnc(Cn2nc(-c3ccc(Cl)cc3)n(C[C@H](O)C(F)(F)F)c2=O)n1)N1CCCCCC1` [Example 350, 2-({1-[2-(Azepan-1-ylcarbonyl)phenyl]-1H-1,2,4-triazol-3-yl}methyl)-5-(4-chlorophenyl)-4-[(2S)-3,3,3-trifluoro-2-hydroxypropyl]-2,4-dihydro-3H-1,2,4-triazol-3-one]: the IC50 at human V2 receptor came out at 265 nM; at human V1a receptor, 1.8 nM. The “ratio IC50 hV2/hV1a” value on human V1a receptor turned out to be 147.2.

Regarding `CC1CCCCN1C(=O)c1ccccc1-n1cnc(Cn2nc(-c3ccc(Cl)cc3)n(C[C@H](O)C(F)(F)F)c2=O)n1` (stereo partly drawn) [Example 352, 5-(4-Chlorophenyl)-2-{[1-(2-{[2-methylpiperidin-1-yl]carbonyl}phenyl)-1H-1,2,4-triazol-3-yl]methyl}-4-[(2S)-3,3,3-trifluoro-2-hydroxypropyl]-2,4-dihydro-3H-1,2,4-triazol-3-one], the IC50 turned out to be 320 nM on human V2 receptor and 0.84 nM on human V1a receptor. On human V1a receptor, the “ratio IC50 hV2/hV1a” value is recorded as 383.2.

Take `O=C(c1ccccc1-n1cnc(Cn2nc(-c3ccc(Cl)cc3)n(C[C@H](O)C(F)(F)F)c2=O)n1)N1CC=CCC1` [Example 353, 5-(4-Chlorophenyl)-2-({1-[2-(3,6-dihydropyridin-1(2H)-ylcarbonyl)phenyl]-1H-1,2,4-triazol-3-yl}methyl)-4-[(2S)-3,3,3-trifluoro-2-hydroxypropyl]-2,4-dihydro-3H-1,2,4-triazol-3-one]: the IC50 at human V2 receptor came to 280 nM. In addition, on human V1a receptor, the IC50 was determined as 0.94 nM and the “ratio IC50 hV2/hV1a” value worked out at 299.5.

With `O=C(NC1CCCCC1)c1ccccc1-n1cnc(Cn2nc(-c3ccc(Cl)cc3)n(C[C@H](O)C(F)(F)F)c2=O)n1` [Example 354, 2-[3-({3-(4-Chlorophenyl)-5-oxo-4-[(2S)-3,3,3-trifluoro-2-hydroxypropyl]-4,5-dihydro-1H-1,2,4-triazol-1-yl}methyl)-1H-1,2,4-triazol-1-yl]-N-cyclohexylbenzamide], on human V2 receptor, the IC50 stood at 150 nM. Besides, on human V1a receptor, the half-inhibitory concentration (IC50) was 2.25 nM and the “ratio IC50 hV2/hV1a” value is 66.7.

As to `CC(C)CN(C)C(=O)c1ccccc1-n1cnc(Cn2nc(-c3ccc(Cl)cc3)n(C[C@H](O)C(F)(F)F)c2=O)n1` [Example 356, 2-[3-({3-(4-Chlorophenyl)-5-oxo-4-[(2S)-3,3,3-trifluoro-2-hydroxypropyl]-4,5-dihydro-1H-1,2,4-triazol-1-yl}methyl)-1H-1,2,4-triazol-1-yl]-N-methyl-N-(2-methylpropyl)benzamide], at human V2 receptor, the IC50 amounted to 1890 nM. In addition, on human V1a receptor, the 50% inhibitory concentration (IC50) turned out to be 2.45 nM and the “ratio IC50 hV2/hV1a” value amounted to 771.4.

Regarding `CN1CCN(C(=O)c2ccccc2-n2cnc(Cn3nc(-c4ccc(Cl)cc4)n(C[C@H](O)C(F)(F)F)c3=O)n2)CC1` [Example 357, 5-(4-Chlorophenyl)-2-[(1-{2-[(4-methylpiperazin-1-yl)carbonyl]phenyl}-1H-1,2,4-triazol-3-yl)methyl]-4-[(2S)-3,3,3-trifluoro-2-hydroxypropyl]-2,4-dihydro-3H-1,2,4-triazol-3-one], the half-maximal inhibitory concentration (IC50) at human V2 receptor was 2450 nM. At human V1a receptor, the IC50 came to 33 nM and the “ratio IC50 hV2/hV1a” value was found to be 74.2.

In the case of `CCN1CCN(C(=O)c2ccccc2-n2cnc(Cn3nc(-c4ccc(Cl)cc4)n(C[C@H](O)C(F)(F)F)c3=O)n2)CC1` [Example 358, 5-(4-Chlorophenyl)-2-[(1-{2-[(4-ethylpiperazin-1-yl)carbonyl]phenyl}-1H-1,2,4-triazol-3-yl)methyl]-4-[(2S)-3,3,3-trifluoro-2-hydroxypropyl]-2,4-dihydro-3H-1,2,4-triazol-3-one], on human V2 receptor, the IC50 is 2750 nM. In addition, at human V1a receptor, the IC50 was 18 nM and the “ratio IC50 hV2/hV1a” value is listed as 152.8.

For `O=C(c1ccccc1-n1cnc(Cn2nc(-c3ccc(Cl)cc3)n(C[C@H](O)C(F)(F)F)c2=O)n1)N1CCCCCCC1` [Example 359, 2-({1-[2-(Azocan-1-ylcarbonyl)phenyl]-1H-1,2,4-triazol-3-yl}methyl)-5-(4-chlorophenyl)-4-[(2S)-3,3,3-trifluoro-2-hydroxypropyl]-2,4-dihydro-3H-1,2,4-triazol-3-one], at human V2 receptor, the IC50 was determined as 900 nM. Also, on human V1a receptor, the half-inhibitory concentration (IC50) is 6.5 nM and the “ratio IC50 hV2/hV1a” value is reported as 138.5.

On to `O=C(Nc1ccccc1)c1ccccc1-n1cnc(Cn2nc(-c3ccc(Cl)cc3)n(C[C@H](O)C(F)(F)F)c2=O)n1` [Example 360, 2-[3-({3-(4-Chlorophenyl)-5-oxo-4-[(2S)-3,3,3-trifluoro-2-hydroxypropyl]-4,5-dihydro-1H-1,2,4-triazol-1-yl}methyl)-1H-1,2,4-triazol-1-yl]-N-phenylbenzamide], for which the half-inhibitory concentration (IC50) on human V2 receptor is 14.9 nM. Moreover, at human V1a receptor, the IC50 came out at 0.74 nM and the “ratio IC50 hV2/hV1a” value is on record as 20.1.

As to `Cc1cccc(NC(=O)c2ccccc2-n2cnc(Cn3nc(-c4ccc(Cl)cc4)n(C[C@H](O)C(F)(F)F)c3=O)n2)c1` [Example 361, 2-[3-({3-(4-Chlorophenyl)-5-oxo-4-[(2S)-3,3,3-trifluoro-2-hydroxypropyl]-4,5-dihydro-1H-1,2,4-triazol-1-yl}methyl)-1H-1,2,4-triazol-1-yl]-N-(3-methylphenyl)benzamide], the half-inhibitory concentration (IC50) at human V2 receptor is 97.5 nM. At human V1a receptor, the IC50 stood at 2.55 nM and the “ratio IC50 hV2/hV1a” value is on record as 38.2.

Consider `CN(CCC#N)C(=O)c1ccccc1-n1cnc(Cn2nc(-c3ccc(Cl)cc3)n(C[C@H](O)C(F)(F)F)c2=O)n1` [Example 362, 2-[3-({3-(4-Chlorophenyl)-5-oxo-4-[(2S)-3,3,3-trifluoro-2-hydroxypropyl]-4,5-dihydro-1H-1,2,4-triazol-1-yl}methyl)-1H-1,2,4-triazol-1-yl]-N-(2-cyanoethyl)-N-methylbenzamide], for which the IC50 worked out at 2500 nM on human V2 receptor and 4.85 nM at human V1a receptor. Besides, at human V1a receptor, the “ratio IC50 hV2/hV1a” value is recorded as 515.5.

Regarding `O=C(NCc1ccccc1F)c1ccccc1-n1cnc(Cn2nc(-c3ccc(Cl)cc3)n(C[C@H](O)C(F)(F)F)c2=O)n1` [Example 363, 2-[3-({3-(4-Chlorophenyl)-5-oxo-4-[(2S)-3,3,3-trifluoro-2-hydroxypropyl]-4,5-dihydro-1H-1,2,4-triazol-1-yl}methyl)-1H-1,2,4-triazol-1-yl]-N-(2-fluorobenzyl)benzamide], the half-maximal inhibitory concentration (IC50) on human V2 receptor was 345 nM. Further, on human V1a receptor, the half-inhibitory concentration (IC50) came out at 5.5 nM and the “ratio IC50 hV2/hV1a” value is listed as 62.7.

`O=C(NCC(F)(F)F)c1cccc(Cl)c1-n1cnc(Cn2nc(-c3ccc(Cl)cc3)n(C[C@H](O)C(F)(F)F)c2=O)n1` [Example 365, 3-Chloro-2-[3-({3-(4-chlorophenyl)-5-oxo-4-[(2S)-3,3,3-trifluoro-2-hydroxypropyl]-4,5-dihydro-1H-1,2,4-triazol-1-yl}methyl)-1H-1,2,4-triazol-1-yl]-N-(2,2,2-trifluoroethyl)benzamide]: on human V2 receptor, the IC50 was determined as 920 nM. Besides, at human V1a receptor, the IC50 is 30 nM and the “ratio IC50 hV2/hV1a” value was 30.7.

Turning to `O=C(NCC(F)(F)F)c1cccc(Cl)c1-n1cnc(Cn2nc(-c3ccc(Cl)cc3)n(C[C@@H](O)C(F)(F)F)c2=O)n1` [Example 366, 3-Chloro-2-[3-({3-(4-chlorophenyl)-5-oxo-4-[(2R)-3,3,3-trifluoro-2-hydroxypropyl]-4,5-dihydro-1H-1,2,4-triazol-1-yl}methyl)-1H-1,2,4-triazol-1-yl]-N-(2,2,2-trifluoroethyl)benzamide], on human V2 receptor, the IC50 came out at 3700 nM. In addition, at human V1a receptor, the IC50 is 195 nM and the “ratio IC50 hV2/hV1a” value was determined as 19.0.

With `O=C(NC1CC1)c1cccc(Cl)c1-n1cnc(Cn2nc(-c3ccc(Cl)cc3)n(C[C@H](O)C(F)(F)F)c2=O)n1` [Example 369, 3-Chloro-2-[3-({3-(4-chlorophenyl)-5-oxo-4-[(2S)-3,3,3-trifluoro-2-hydroxypropyl]-4,5-dihydro-1H-1,2,4-triazol-1-yl}methyl)-1H-1,2,4-triazol-1-yl]-N-cyclopropylbenzamide], at human V2 receptor, the 50% inhibitory concentration (IC50) was 470 nM. Besides, at human V1a receptor, the IC50 worked out at 2.8 nM and the “ratio IC50 hV2/hV1a” value was 167.9.
